Assay results: ChEMBL document CHEMBL3875156, “Design, synthesis and preliminary evaluation of dopamine-amino acid conjugates as potential D1 dopaminergic modulators” (Eur J Med Chem, 2016)

Legend:
[1] = n-octanol-phosphate buffer apparent distribution coefficient, log D of the compound at pH 7.4 by shake flask method; assay type: physicochemical
[2] = Half life in human plasma at 2.05 mg/mL; assay type: ADME, cell-free
[3] = Half life in Sprague-Dawley rat brain homogenate at 2.075 mg/mL; assay type: ADME, tissue-based

SMILES	logD [1]	half-life [2] [h]	half-life [3] [h]
N[C@@H](Cc1c[nH]c2ccccc12)C(=O)NCCc1ccc(O)c(O)c1	0.5	2	1.33
CC(C)C[C@H](N)C(=O)NCCc1ccc(O)c(O)c1	0.18	0.767	3.22
